Target: T1, KMO mouse enzyme (Mus musculus, UniProt Q91WN4)
T1 construct: KMO enzyme prepared at Evotec from mouse liver (4-6 weeks old) via mitochondria isolation; from tissue; host or cells: mouse liver (4-6 weeks old), mitochondria isolation at Evotec
Assay: Mouse KMO enzyme assay: L-kynurenine hydroxylation to 3OH-KYN by LC/MS
Format: biochemical
Conditions: compound at 10 μM; KMO from mouse liver mitochondria; read-out: INH.Mouse @ 10 μM
Experimental: Product is quantified by multiple reaction monitoring (MRM method).
• Compound: Stock concentrations: 10 mM in 100% DMSO • Enzyme: KMO enzyme prepared at Evotec from mouse liver (4-6 weeks old) via mitochondria isolation as described in the literature • Substrate: L-Kynurenine (Sigma: Cat #K3750, stock concentration:
10 mM in 100 mM potassium phosphate buffer, pH 7.4)

T1 sequence (Q91WN4 whole entry): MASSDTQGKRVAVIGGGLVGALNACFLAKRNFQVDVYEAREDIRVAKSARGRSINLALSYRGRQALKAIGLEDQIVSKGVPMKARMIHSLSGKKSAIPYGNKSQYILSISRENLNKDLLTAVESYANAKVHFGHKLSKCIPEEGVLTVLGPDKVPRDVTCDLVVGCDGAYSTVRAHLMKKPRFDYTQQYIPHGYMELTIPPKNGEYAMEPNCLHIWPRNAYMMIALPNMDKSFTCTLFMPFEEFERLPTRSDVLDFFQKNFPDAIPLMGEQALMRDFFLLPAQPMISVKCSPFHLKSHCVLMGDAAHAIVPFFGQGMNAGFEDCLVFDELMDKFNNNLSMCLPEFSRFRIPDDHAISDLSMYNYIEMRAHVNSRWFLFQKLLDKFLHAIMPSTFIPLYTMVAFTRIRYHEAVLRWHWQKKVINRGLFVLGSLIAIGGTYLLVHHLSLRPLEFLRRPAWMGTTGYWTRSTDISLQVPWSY

Going from `O=C(O)C1CNCCN1c1cc(-c2ccc(Cl)c(Cl)c2)ncn1` (stereo not shown) [1-(6-(3,4-dichlorophenyl)pyrimidin-4-yl)piperazine-2-carboxylic acid] to `O=C(O)[C@H]1CCCN1c1cc(-c2ccc(Cl)c(Cl)c2)ncn1` [(R)-1-(6-(3,4-dichlorophenyl)pyrimidin-4-yl)pyrrolidine-2-carboxylic acid], the inhibition at 10 µM falls from 30% to 7%.

First: O=C(O)C1CCN(c2cc(-c3ccc(Cl)c(Cl)c3)ncn2)C1 (stereo not shown) [1-(6-(3,4-dichlorophenyl)pyrimidin-4-yl)pyrrolidine-3-carboxylic acid]
Second: O=C(O)C1CN(c2cc(-c3ccc(Cl)c(Cl)c3)ncn2)CCN1 (stereo not shown) [4-(6-(3,4-dichlorophenyl)pyrimidin-4-yl)piperazine-2-carboxylic acid]
The inhibition at 10 µM of the first is higher: 14% for the first, 0% for the second.

First: Clc1cc(-c2cc(-c3ncco3)ncn2)ccc1OC1CC1 [2-(6-(3-chloro-4-cyclopropoxyphenyl)pyrimidin-4-yl)oxazole]
Second: O=c1[nH]c(-c2cc(-c3ccc(OC4CC4)c(Cl)c3)ncn2)no1 [3-[6-(3-chloro-4-cyclopropoxyphenyl)pyrimidin-4-yl]-4,5-dihydro-1,2,4-oxadiazol-5-one]
The inhibition at 10 µM of the first is lower: 71% for the first, 93% for the second.

Going from `FC(F)(F)c1c[nH]c(-c2cc(-c3ccc(Cl)c(Cl)c3)ncn2)n1` [4-(3,4-dichlorophenyl)-6-(4-(trifluoromethyl)-1H-imidazol-2-yl)pyrimidine] to `Clc1cc(-c2cc(-c3nn[nH]n3)ncn2)ccc1OC1CC1` [4-(3-chloro-4-cyclopropoxyphenyl)-6-(1H-1,2,3,4-tetrazol-5-yl)pyrimidine], the inhibition at 10 µM rises from 0% to 100%.

Compared with `CC(C)Oc1ccc(-c2cc(C3CNC(C(=O)O)C3)ncn2)cc1Cl` (stereo not shown) [4-(6-(3-chloro-4-isopropoxyphenyl)pyrimidin-4-yl)pyrrolidine-2-carboxylic acid], `O=C(O)C1CCC(c2cc(-c3ccc(OC4CC4)c(Cl)c3)ncn2)N1` (stereo not shown) [5-(6-(3-chloro-4-cyclopropoxyphenyl)pyrimidin-4-yl)pyrrolidine-2-carboxylic acid] is higher in inhibition at 10 µM: 71% for the first, 84% for the second.

`O=C(O)[C@@H]1CCCN1c1cc(-c2ccc(Cl)c(Cl)c2)ncn1` [(S)-1-(6-(3,4-dichlorophenyl)pyrimidin-4-yl)pyrrolidine-2-carboxylic acid] showed an inhibition at 10 µM of 11%.

System: not listed separately
Assay: Solubility remark made during LCMS characterisation
Format: physicochemical
Conditions: solvent for LCMS analysis

For `O=c1[nH]nc(-c2cc(-c3ccc(Cl)c(Cl)c3)ncn2)[nH]1`, the “solubility (remark in words)” value was “very unsoluble compound- LCMS unobtainable ^1H NMR (250 MHz, DMSO- d6) ppm 9.27-9.32 (1 H, m), 8.39-8.47 (2 H, m), 8.17- 8.25 (1 H, m), 7.76-7.85 (1 H, m)”.
With `Cn1[nH]cc(-c2cc(-c3ccc(Cl)c(Cl)c3)ncn2)c1=O` the “solubility (remark in words)” value was “Compound is insufficiently soluble in any acceptable solvent in order to obtain a meaningful LCMS 1H NMR (500 MHz, DMSO-d6) d ppm 8.88 (1 H, s), 8.44 (1 H, br. s.), 8.26 (1 H, br. s.), 8.19 (1 H, d), 8.06 (1 H, br. s.), 7.85 (1 H, d), 3.45 (3 H, s)”.
